The structures appear in SMILES notation.

What is called IC50 is the concentration at which inhibition is half-maximal.

The first test deals with nitric oxide production.
Test: not given
The note with it: Jin et al., J Nat Prod 65: 89 (2002); read-out: IC50, inhibition of nitric oxide production; cited from earlier work.
For the compound `N=C(N)NN` [aminoguanidine], the IC50 was 16000 nM.

In a further test the test system is A549 cells. The test can be described thus: Inhibition of cell growth in tumor cells (MTT assay). The format is cell-based. The following applies: Homo sapiens, 72 h compound exposure. How it is done: Inhibition of cell growth by compounds was measured using MTT assay (Mosmann, T., Journal of Immunological Methods, 1983, 65, 55-63). Tumor cell lines were purchased from ATCC (American Type Culture Collection, Manassas, Va.). All cell lines were maintained in RPMI 1640 (Hyclone) supplemented with 10% fetal bovine serum (FBS, Hyclone), glutamine (2 mM, Hyclone), and antibiotics (penicillin 100 U/mL and streptomycin 50 μg/mL) at 37° C. in a humidified atmosphere of 5% CO2 in air. Taxol (positive control, Sigma) and compounds were dissolved in DMSO (Sigma), and the final concentration of DMSO in the medium was 1%. Tumor cells were plated in 96-well plates at densities from 4000 cells/well of a 96-well plate and allowed to adhere/grow for 24 h. They were then treated with various concentrations of drug for 72 h. 3-(4,5-Dimethylthiazol-2-yl)-2,5-diphenyltetrazolium bromide (MTT, Sigma) was used to determine the number of viable cells at the time of compound addition and the number of cells remaining after 72 h compound exposure. The number of cells remaining after 72 h was compared to the number of viable cells at the time of compound addition by measuring the absorbance at 570 nm, allowing for the calculation of growth inhibition.
All concentrations of compounds were tested in triplicate and controls were averaged over 4 wells. IC50 was calculated by plotting the concentration of compound vs the percentage of inhibition in treated wells using GraphPad Prism 5.
For the compound `CC1=C(O)C(=O)C=C2C1=CC=C1[C@@]2(C)CC[C@@]2(C)[C@@H]3C[C@](C)(CNC(N)=O)CC[C@]3(C)CC[C@]12C` [1-(((2R,4aS,6aS,12bR,14aS,14bR)-10-hydroxy-2,4-a,6a,9,12b,14a-hexamethyl-11-oxo-1,2,3,4,4a, 5,6,6a,11,12b,13,14,14a,14b-tetradecahydropicen-2-yl)methyl)urea], 737 nM corresponded to half-maximal inhibition (IC50). Still for that read-out and setting: the same measure for `CC1=C(O)C(=O)C=C2C1=CC=C1[C@@]2(C)CC[C@@]2(C)[C@@H]3C[C@](C)(CO)CC[C@]3(C)CC[C@]12C` [(6bS,8aS,11R,12aR,12bS,14aR)-3-hydroxy-11-(hydroxymethyl)-4,6b,8a,11,12b,14a-hexamethyl-7,8,8a,9,10,11,12,12a,12b,13,14,14a-dodecahydropicen-2(6bH)-one]: 624 nM; for `CC1=C(O)C(=O)C=C2C1=CC=C1[C@@]2(C)CC[C@@]2(C)[C@@H]3C[C@](C)(CNC(=O)N4CCN(C)CC4)CC[C@]3(C)CC[C@]12C` [N-(((2R,4aS,6aS,12bR,14aS,14bR)-10-hydroxy-2,4-a,6a,9,12b,14a-hexamethyl-11-oxo-1,2,3,4,4a,5,6,6a,11,12b,13,14,14a,14b-tetradecahydropicen-2-yl)methyl)-4-methylpiperazine-1-carboxamide]: 246 nM; for `CC1=C(O)C(=O)C=C2C1=CC=C1[C@@]2(C)CC[C@@]2(C)[C@@H]3C[C@](C)(CN4CCCC4)CC[C@]3(C)CC[C@]12C` [(6bS,8aS,11R,12aR,12bS,14aR)-3-hydroxy-4,6b,8a,11,12b,14a-hexamethyl-11-(pyrrolidin-1-ylmethyl)-7,8,8a,9,10,11,12,12a,12b,13,14,14a-dodecahydropicen-2(6bH)-one]: 498 nM. Still for that read-out and setting: the same measure for `CC1=C(O)C(=O)C=C2C1=CC=C1[C@@]2(C)CC[C@@]2(C)[C@@H]3C[C@](C)(CN(C)C)CC[C@]3(C)CC[C@]12C` [(6bS,8aS,11R,12aR,12bS,14aR)-11-((dimethylamino)methyl)-3-hydroxy-4,6b,8a,11,12b,14a-hexamethyl-7,8,8a,9,10,11,12,12a,12b,13,14,14a-dodecahydropicen-2(6bH)-one]: 285 nM; for `COC(=O)OC[C@]1(C)CC[C@]2(C)CC[C@]3(C)C4=CC=C5C(=CC(=O)C(O)=C5C)[C@]4(C)CC[C@@]3(C)[C@@H]2C1` [((2R,4aS,6aS,12bR,14aS,14bR)-10-hydroxy-2,4-a,6a,9,12b,14a-hexamethyl-11-oxo-1,2,3,4,4a,5,6,6a,11,12b,13,14,14a,14b-tetradecahydropicen-2-yl)methyl methyl carbonate]: 393 nM. Take `CC1=C(O)C(=O)C=C2C1=CC=C1[C@@]2(C)CC[C@@]2(C)[C@@H]3C[C@](C)(CNC(=O)CN(C)C)CC[C@]3(C)CC[C@]12C` [2-(dimethylamino)-N-(((2R,4aS,6aS,12bR,14aS,14bR)-10-hydroxy-2,4a,6a,9,12b,14a-hexamethyl-11-oxo-1,2,3,4,4a,5,6,6a,11,12b,13,14,14a,14b-tetradecahydropicen-2-yl)methyl)acetamide]: 159 nM corresponded to half-maximal inhibition (IC50). Consider `CC1=C(O)C(=O)C=C2C1=CC=C1[C@@]2(C)CC[C@@]2(C)[C@@H]3C[C@](C)(CN4CCOCC4)CC[C@]3(C)CC[C@]12C` [(6bS,8aS,11R,12aR,12bS,14aR)-3-hydroxy-4,6b,8a,11,12b,14a-hexamethyl-11-(morpholinomethyl)-7,8,8a,9,10,11,12,12a,12b,13,14,14a-dodecahydropicen-2(6bH)-one], for which the IC50 turned out to be 523 nM. For `CC1=C(O)C(=O)C=C2C1=CC=C1[C@@]2(C)CC[C@@]2(C)[C@@H]3C[C@](C)(CNC(=O)N4CCOCC4)CC[C@]3(C)CC[C@]12C` [N-(((2R,4aS,6aS,12bR,14aS,14bR)-10-hydroxy-2,4-a,6a,9,12b,14a-hexamethyl-11-oxo-1,2,3,4,4a,5,6,6a,11,12b,13,14,14a,14b-tetradecahydropicen-2-yl)methyl)morpholine-4-carboxamide], inhibition was half-maximal at 358 nM (IC50).

On to `CC1=C(O)C(=O)C=C2C1=CC=C1[C@@]2(C)CC[C@@]2(C)[C@@H]3C[C@](C)(CN)CC[C@]3(C)CC[C@]12C` [(6bS,8aS,11R,12aR,12bS,14aR)-11-(aminomethyl)-3-hydroxy-4,6b,8a,11,12b,14a-hexamethyl-7,8,8a,9,10,11,12,12a,12b,13,14,14a-dodecahydropicen-2(6bH)-one], for which the IC50 was 841 nM.

Values taken from patent US8691977B2, “Certain chemical entities, compositions, and methods” (Neupharma, Inc., priority 2010, dated 2014).
